The values below come from PubChem BioAssay (NCI).

Test systems include NCI-H23 lung; ACHN renal; SNB-75 CNS; SW-620 colon; MOLT-4 leukemia; KM12 colon; SNB-19 CNS; T-47D breast; SK-MEL-5 melanoma; UACC-257 melanoma.
Common to all, as to experiment: NCI anticancer screen, dose series, 48 h

Each structure is given as a SMILES string.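 How tested: cells in 96-well plates exposed to compound for 48 hours at five concentrations. Here, GI50 denotes the concentration required for 50% inhibition of growth. The concentration for full growth arrest is given as TGI.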

Regarding `c1ccc(-c2cnc(-c3ccc(-c4ncc(-c5ccccc5)o4)cc3)o2)cc1`, the TGI with NCI-H23 lung, with ACHN renal, in the experiment on SNB-75 CNS, in the experiment on SW-620 colon, in the experiment with MOLT-4 leukemia and with KM12 colon was above 100 µM in each case. The TGI in the experiment on SNB-19 CNS, in the experiment with T-47D breast, in the experiment on SK-MEL-5 melanoma and with UACC-257 melanoma was above 100 µM each time.

`N#CC(=N)c1ncn(-c2ccccc2N)c1N`: the TGI in the experiment on NCI-H23 lung, in the experiment on ACHN renal, with SNB-75 CNS, with SW-620 colon, with MOLT-4 leukemia and in the experiment with KM12 colon was above 100 µM each time. Further, the TGI with SNB-19 CNS, with T-47D breast, with SK-MEL-5 melanoma and in the experiment on UACC-257 melanoma was above 100 µM each time.

Consider `CCOC(=O)C1(C(=O)OCC)CCCN1C(=O)[C@H](CNC(=O)OC(C)(C)C)NC(=O)OCc1ccccc1`, for which the TGI in the experiment with NCI-H23 lung, in the experiment on ACHN renal, in the experiment on SNB-75 CNS, in the experiment with SW-620 colon, with MOLT-4 leukemia and in the experiment with KM12 colon was above 100 µM in each case. Further, the TGI with SNB-19 CNS, in the experiment on T-47D breast, in the experiment on SK-MEL-5 melanoma and in the experiment with UACC-257 melanoma was above 100 µM in each case.

`O=C1CCCc2cc3c(cc21)CC1(C3)Cc2ccc3c(c2C1)C(=O)CCC3` (stereo not given): the TGI in the experiment with NCI-H23 lung was above 100 µM; in the experiment with ACHN renal, 55.4 µM; in the experiment on SNB-75 CNS, 80.4 µM; with SW-620 colon it was above 100 µM; with MOLT-4 leukemia, 22.7 µM; in the experiment with KM12 colon, 37.9 µM. Also, the TGI in the experiment on SNB-19 CNS was above 100 µM; with T-47D breast, above 100 µM; in the experiment with SK-MEL-5 melanoma it was 7.66 µM; in the experiment with UACC-257 melanoma, 26.5 µM.

For the compound `O=C(Nc1ccc(-n2cc(-c3ccncc3)c(-c3ccc(O)c(Cl)c3)n2)cc1)Nc1cccc(Cl)c1Cl`, the GI50 in the experiment on NCI-H23 lung is 14.6 µM; in the experiment on ACHN renal, 7.82 µM; in the experiment on SNB-75 CNS, 5.51 µM; in the experiment with SW-620 colon, 20.6 µM; in the experiment on MOLT-4 leukemia it was 3.7 µM; in the experiment with KM12 colon, 5.95 µM. Moreover, the GI50 with SNB-19 CNS was 15.8 µM; with T-47D breast, 8.62 µM; with SK-MEL-5 melanoma, 3.26 µM; in the experiment on UACC-257 melanoma, 18.6 µM. Further, the TGI with NCI-H23 lung, with ACHN renal, in the experiment on SNB-75 CNS, in the experiment on SW-620 colon, in the experiment on MOLT-4 leukemia and in the experiment on KM12 colon was above 32.5 µM throughout. Besides, the TGI with SNB-19 CNS, with T-47D breast, in the experiment with SK-MEL-5 melanoma and in the experiment on UACC-257 melanoma was above 32.5 µM throughout.

As to `COC(=O)C1OC(O[C@H]2CC[C@]3(C)[C@H]4CC=C5[C@@H]6CC(C)(C)CC[C@]6(C(=O)OC6OCC(O)C(O)C6OC6OC(C)C(OC7OCC(OC8OCC(O)C(O)C8O)C(O)C7O)C(O)C6O)[C@H](O)C[C@@]5(C)[C@]4(C)CC[C@H]3C2(C)C)C(O)C(O)C1O` (stereo not given in full), the TGI in the experiment on NCI-H23 lung is 6.53 µM; in the experiment with ACHN renal, 11.9 µM; in the experiment with SNB-75 CNS it was 11.3 µM; in the experiment with SW-620 colon, 11.8 µM; with MOLT-4 leukemia it was above 100 µM; with KM12 colon, 14.2 µM. The TGI came out at 8.09 µM with SNB-19 CNS, 13.2 µM with T-47D breast, 11.6 µM in the experiment with SK-MEL-5 melanoma and 13.1 µM in the experiment on UACC-257 melanoma.

Regarding `CC(C)(C)C(=O)C(Cc1ccccc1)C(=O)C(C)(C)C`, the TGI in the experiment with NCI-H23 lung, in the experiment with ACHN renal, in the experiment with SNB-75 CNS, with SW-620 colon, with MOLT-4 leukemia and with KM12 colon was above 100 µM in each case. Besides, the TGI in the experiment with SNB-19 CNS, with T-47D breast, in the experiment with SK-MEL-5 melanoma and in the experiment on UACC-257 melanoma was above 100 µM each time.

Turning to `CC(C)(C)c1ccc(OCC(=O)O)c(Cl)c1`, the TGI in the experiment on NCI-H23 lung, in the experiment with ACHN renal, in the experiment on SNB-75 CNS, in the experiment on SW-620 colon, in the experiment with MOLT-4 leukemia and in the experiment with KM12 colon was above 100 µM each time. The TGI in the experiment with SNB-19 CNS, in the experiment with T-47D breast, in the experiment on SK-MEL-5 melanoma and with UACC-257 melanoma was above 100 µM each time.

Turning to `O=C1c2cccc(NCCNCCO)c2C(=O)c2cccc(NCCNCCO)c21`, the TGI in the experiment on NCI-H23 lung came to 5.68 µM; with ACHN renal, 8.16 µM; in the experiment on SNB-75 CNS it was 3.03 µM; in the experiment with SW-620 colon it was 11 µM; with MOLT-4 leukemia, 6.3 µM; with KM12 colon, 4.48 µM. Also, the TGI with SNB-19 CNS was determined as 5.53 µM; with T-47D breast it was 4.26 µM; in the experiment with SK-MEL-5 melanoma, 3.39 µM; in the experiment on UACC-257 melanoma, 9.4 µM.

As for `Cc1cc(/N=C/c2ccc(C#N)cc2)n(-c2ccccc2)n1`, the TGI in the experiment on NCI-H23 lung, in the experiment with ACHN renal, with SNB-75 CNS, in the experiment with SW-620 colon, with MOLT-4 leukemia and in the experiment with KM12 colon was above 100 µM each time. Further, the TGI in the experiment on SNB-19 CNS, with T-47D breast, with SK-MEL-5 melanoma and with UACC-257 melanoma was above 100 µM each time.

In the case of `COC(=O)C1(Cc2ccc3c(c2)CCC3)Cc2ccccc2C1=O` (stereo not given), the TGI in the experiment with NCI-H23 lung was 95.4 µM; in the experiment on ACHN renal, above 100 µM; in the experiment with SNB-75 CNS, above 100 µM; with SW-620 colon, above 100 µM; with MOLT-4 leukemia, 52.3 µM; in the experiment with KM12 colon it was 20.3 µM. The TGI in the experiment with SNB-19 CNS was above 100 µM; in the experiment with T-47D breast, above 100 µM; in the experiment on SK-MEL-5 melanoma it was 18.1 µM; with UACC-257 melanoma it was 76 µM.
